Each cell line was assayed with O=C(NC1CCNCC1)c1n[nH]cc1NC(=O)c1c(Cl)cccc1Cl [AT-7519] + C[C@]1(O)C[C@@H](c2nc(-c3ccc4ccc(-c5ccccc5)nc4c3)c3c(N)nccn32)C1 [Linsitinib] (partner 1 µM) (assay: relative viability (nuclei count vs DMSO), 5 days (fraction); higher = more cells survive). Details: first compound 0.01 µM.
Method in brief: (§1)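 After 5 days of treatment, lung cancer cells in 1536-well plates were fixed and stained in a single step (final 0.05% Triton X-100, 1% formaldehyde, 1 ug/ml Hoechst) and their nuclei counted on 4× images. Treatment had been applied by pin tool the day after seeding as one drug alone or as a fixed anchor-drug dose with five library-drug doses (not always all listed) in √10 steps. Relative viability is the nuclei count of treated wells divided by that of vehicle wells, and values are medians of duplicate plates.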

Cell Line	relative viability
NCI-H727	0.287
EBC-1	0.935
NCI-H1703	0.854
NCI-H1993	0.707
SW 1573	0.762
NCI-H838	1.03
LCLC-103H	0.955
NCI-H520	1.01
NCI-H2126	0.747
EMC-BAC-2	0.823
NCI-H2085	0.904
Calu-6	1.05
HCC-366	0.639
NCI-H1666	0.727
NCI-H596	1.04
LK-2	0.514
NCI-H2087	1.07
SK-MES-1	1.08
H3255	0.964

Cell Line	relative viability
COR-L23	0.82
COR-L 105	0.962
IA-LM	0.765
LOU-NH91	0.984
NCI-H2405	1.19
HOP-62	0.93
HCC-44	0.677
A549	0.658
LU99A	0.514
BEN	0.887
HARA	1.15
HCC-78	0.52
NCI-H322M	0.95
LCLC-97TM1	0.189
NCI-H2009	1.24
NCI-H1299	1.1
NCI-H1563	1.2
ABC-1	0.784

Same assay, conditions: first compound 0.03162 µM

Cell Line	relative viability
NCI-H727	0.309
EBC-1	1.01
NCI-H1703	0.835
NCI-H1993	0.738
SW 1573	0.664
NCI-H838	1.01
LCLC-103H	1.04
NCI-H520	0.88
NCI-H2126	0.744
EMC-BAC-2	0.816
NCI-H2085	0.857
Calu-6	0.942
HCC-366	0.522
NCI-H1666	0.784
NCI-H596	0.91
LK-2	0.448
NCI-H2087	1.1
SK-MES-1	0.958
H3255	0.888

Cell Line	relative viability
COR-L23	0.776
COR-L 105	0.907
IA-LM	0.491
LOU-NH91	0.894
NCI-H2405	0.847
HOP-62	0.859
HCC-44	0.62
A549	0.552
LU99A	0.577
BEN	0.894
HARA	0.92
HCC-78	0.452
NCI-H322M	0.926
LCLC-97TM1	0.155
NCI-H2009	1.24
NCI-H1299	0.96
NCI-H1563	1.25
ABC-1	0.715

Same assay, conditions: first compound 0.3162 µM

Cell Line	relative viability
NCI-H727	0.163
EBC-1	0.938
NCI-H1703	0.379
NCI-H1993	0.663
SW 1573	0.739
NCI-H838	0.74
LCLC-103H	1.1
NCI-H520	0.82
NCI-H2126	0.682
EMC-BAC-2	0.778
NCI-H2085	0.726
Calu-6	1.07
HCC-366	0.429
NCI-H1666	0.807
NCI-H596	0.973
LK-2	0.368
NCI-H2087	0.78
SK-MES-1	1.08
H3255	0.909

Cell Line	relative viability
COR-L23	0.481
COR-L 105	0.867
IA-LM	0.442
LOU-NH91	0.916
NCI-H2405	0.865
HOP-62	0.682
HCC-44	0.678
A549	0.629
LU99A	0.54
BEN	0.864
HARA	0.945
HCC-78	0.567
NCI-H322M	0.962
LCLC-97TM1	0.17
NCI-H2009	1.15
NCI-H1299	0.946
NCI-H1563	1.25
ABC-1	0.788

Same assay, conditions: first compound 1 µM

Cell Line	relative viability
NCI-H727	0.167
EBC-1	0.934
NCI-H1703	0.149
NCI-H1993	0.585
SW 1573	0.398
NCI-H838	0.149
LCLC-103H	1.13
NCI-H520	0.454
NCI-H2126	0.675
EMC-BAC-2	0.77
NCI-H2085	0.637
Calu-6	0.772
HCC-366	0.185
NCI-H1666	0.376
NCI-H596	0.897
LK-2	0.255
NCI-H2087	0.141
SK-MES-1	0.953
H3255	0.788

Cell Line	relative viability
COR-L23	0.137
COR-L 105	0.516
IA-LM	0.548
LOU-NH91	0.776
NCI-H2405	0.473
HOP-62	1.05
HCC-44	0.543
A549	0.39
LU99A	0.404
BEN	0.785
HARA	0.671
HCC-78	0.374
NCI-H322M	0.946
LCLC-97TM1	0.151
NCI-H2009	0.676
NCI-H1299	0.645
NCI-H1563	1
ABC-1	0.243

The cell lines below were run with O=C(NC1CCNCC1)c1n[nH]cc1NC(=O)c1c(Cl)cccc1Cl [AT-7519] + CCNC(=O)c1noc(-c2cc(C(C)C)c(O)cc2O)c1-c1ccc(CN2CCOCC2)cc1 [Luminespib] (partner 0.01 µM) in the same assay as above. Details: first compound 0.01 µM.
Method in brief: as §1

Cell Line	relative viability
NCI-H2342	0.646
NCI-H1623	0.534
NCI-H727	0.343
NCI-H1650	0.186
NCI-H1993	0.788
SW 1573	0.223
NCI-H838	0.239
LCLC-103H	1.06
NCI-H520	0.233
NCI-H2126	1.02
EMC-BAC-2	1.21
NCI-H2085	0.528
NCI-H1666	1.06
NCI-H596	0.988
LK-2	0.188
NCI-H2087	0.178
SK-MES-1	0.847
H3255	0.902

Cell Line	relative viability
COR-L23	1
COR-L 105	0.776
LOU-NH91	0.356
ChaGo-K-1	0.607
NCI-H2170	0.398
NCI-H2405	0.713
HOP-62	1.02
HCC-44	1.13
NCI-H522	1.01
LU99A	0.274
BEN	0.303
HARA	0.71
SW 900	0.171
NCI-H322M	0.893
LCLC-97TM1	0.976
NCI-H2009	1.03
NCI-H1563	0.526
ABC-1	0.75

Same assay, conditions: first compound 0.03162 µM

Cell Line	relative viability
NCI-H2342	0.759
NCI-H1623	0.449
NCI-H727	0.339
NCI-H1650	0.202
NCI-H1993	0.823
SW 1573	0.203
NCI-H838	0.292
LCLC-103H	0.953
NCI-H520	0.239
NCI-H2126	0.916
EMC-BAC-2	1.17
NCI-H2085	0.405
NCI-H1666	0.943
NCI-H596	1
LK-2	0.159
NCI-H2087	0.16
SK-MES-1	0.734
H3255	0.936

Cell Line	relative viability
COR-L23	0.867
COR-L 105	0.942
LOU-NH91	0.312
ChaGo-K-1	0.544
NCI-H2170	0.636
NCI-H2405	0.718
HOP-62	0.916
HCC-44	1.03
NCI-H522	1.07
LU99A	0.221
BEN	0.307
HARA	0.533
SW 900	0.183
NCI-H322M	0.824
LCLC-97TM1	0.692
NCI-H2009	1.03
NCI-H1563	0.542
ABC-1	0.582

Same assay, conditions: first compound 0.3162 µM

Cell Line	relative viability
NCI-H2342	0.613
NCI-H1623	0.397
NCI-H727	0.279
NCI-H1650	0.205
NCI-H1993	0.844
SW 1573	0.149
NCI-H838	0.276
LCLC-103H	0.955
NCI-H520	0.263
NCI-H2126	0.805
EMC-BAC-2	1.19
NCI-H2085	0.489
NCI-H1666	0.988
NCI-H596	0.846
NCI-H2087	0.141
SK-MES-1	0.593
H3255	0.938
COR-L23	0.273

Cell Line	relative viability
COR-L 105	0.68
LOU-NH91	0.351
ChaGo-K-1	0.669
NCI-H2170	0.807
NCI-H2405	0.592
HOP-62	0.993
HCC-44	0.636
NCI-H522	1.31
LU99A	0.223
BEN	0.231
HARA	0.412
SW 900	0.173
NCI-H322M	0.462
LCLC-97TM1	0.788
NCI-H2009	1.02
NCI-H1563	0.599
ABC-1	0.347

Same assay, conditions: first compound 1 µM

Cell Line	relative viability
NCI-H2342	0.587
NCI-H1623	0.307
NCI-H727	0.24
NCI-H1650	0.21
NCI-H1993	0.388
SW 1573	0.126
NCI-H838	0.13
LCLC-103H	0.867
NCI-H520	0.209
NCI-H2126	0.297
EMC-BAC-2	1.14
NCI-H2085	0.515
NCI-H1666	0.585
NCI-H596	0.827
LK-2	0.189
NCI-H2087	0.116
SK-MES-1	0.33
H3255	0.974

Cell Line	relative viability
COR-L23	0.116
COR-L 105	0.521
LOU-NH91	0.281
ChaGo-K-1	0.522
NCI-H2170	0.599
NCI-H2405	0.281
HOP-62	0.859
HCC-44	0.235
NCI-H522	0.959
LU99A	0.193
BEN	0.361
HARA	0.398
SW 900	0.179
NCI-H322M	0.305
LCLC-97TM1	0.285
NCI-H2009	0.881
NCI-H1563	0.538
ABC-1	0.206

The cell lines below were run with C1=CC2=C(C=C(C(=C2N=C1)O)N=NC3=CC4=C(C=C3)C=C(C=C4)S(=O)(=O)O)S(=O)(=O)O + Cc1nc(NC(=O)N2CCC[C@H]2C(N)=O)sc1-c1ccnc(C(C)(C)C(F)(F)F)c1 [Alpelisib] (partner 2 µM) in the same assay as above. Details: first compound 0.08 µM.
Method in brief: as §1

Cell Line	relative viability
NCI-H727	0.547
EBC-1	0.822
NCI-H1703	0.369
NCI-H1993	0.71
SW 1573	0.92
NCI-H838	1.22
LCLC-103H	1
NCI-H520	0.907
NCI-H2126	0.834
EMC-BAC-2	0.8
NCI-H2085	1.08
Calu-6	0.942
HCC-366	0.386
NCI-H1666	0.985
NCI-H596	0.48
LK-2	1.12
NCI-H2087	0.938
SK-MES-1	0.987
H3255	0.82
COR-L23	0.818

Source: the supplement of paper PMC10307832
